According to PMC4907642 (Journal of medicinal chemistry, 2015):

Test system: panel of 456 kinases
Details: 1 µM

Compound	KINOMEscan interactions mapped
CCc1cc2c(cc1-c1cnn(CCCN(C)C)c1)C(C)(C)c1[nH]c3cc(C#N)ccc3c1C2=O [Compound 32, 8-(1-(3-(dimethylamino)propyl)-1H-pyrazol-4-yl)-9-ethyl-6,6-dimethyl-11-oxo-6,11-dihydro-5H-benzo[b]carbazole-3-carbonitrile]	39

Target: EML4-ALK G1202R transformed Ba/F3 cells (Homo sapiens, UniProt Q9HC35+Q9UM73, G1202R)
Details: 1 µM, result in words

Chain of EML4-ALK G1202R transformed Ba/F3 cells (Q9UM73 1058-1620 G1202R limits assumed, one chain of several): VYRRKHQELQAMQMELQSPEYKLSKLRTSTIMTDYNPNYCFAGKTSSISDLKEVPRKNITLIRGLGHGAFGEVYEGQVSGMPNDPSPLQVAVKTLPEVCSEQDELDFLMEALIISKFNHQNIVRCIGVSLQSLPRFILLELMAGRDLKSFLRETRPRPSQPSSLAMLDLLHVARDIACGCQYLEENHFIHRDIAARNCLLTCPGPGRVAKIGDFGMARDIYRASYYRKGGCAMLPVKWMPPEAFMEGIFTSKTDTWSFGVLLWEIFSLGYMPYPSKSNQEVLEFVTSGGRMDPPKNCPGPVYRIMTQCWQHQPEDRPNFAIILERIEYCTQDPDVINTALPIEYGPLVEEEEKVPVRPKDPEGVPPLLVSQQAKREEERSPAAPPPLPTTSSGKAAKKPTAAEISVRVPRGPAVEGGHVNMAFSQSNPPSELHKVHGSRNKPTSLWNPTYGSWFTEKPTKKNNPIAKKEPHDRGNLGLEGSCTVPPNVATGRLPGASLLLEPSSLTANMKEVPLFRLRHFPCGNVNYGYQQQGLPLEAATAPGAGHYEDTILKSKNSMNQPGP

Compound	single point inhibition of the G1202R mutant
CCc1cc2c(cc1N1CCC(N(C)C)CC1)C(C)(C)c1[nH]c3cc(C#N)ccc3c1C2=O [Compound 17, 8-(4-(dimethylamino)piperidin-1-yl)-9-ethyl-6,6-dimethyl-11-oxo-6,11-dihydro-5H-benzo[b]carbazole-3-carbonitrile]	potent inhibition
CCc1cc2c(cc1N1CCN(C)CC1)C(C)(C)c1[nH]c3cc(C#N)ccc3c1C2=O [Compound 19, 9-ethyl-6,6-dimethyl-8-(4-methylpiperazin-1-yl)-11-oxo-6,11-dihydro-5H-benzo[b]carbazole-3-carbonitrile]	potent inhibition
CCc1cc2c(cc1C#N)C(C)(C)c1[nH]c3cc(C#N)ccc3c1C2=O [Compound 21, 9-ethyl-6,6-dimethyl-11-oxo-6,11-dihydro-5H-benzo[b]carbazole-3,8-dicarbonitrile]	much less potent
CCc1cc2c(cc1[C@@H](O)CO)C(C)(C)c1[nH]c3cc(C#N)ccc3c1C2=O [Compound 22, (R)-8-(1,2-dihydroxyethyl)-9-ethyl-6,6-dimethyl-11-oxo-6,11-dihydro-5H-benzo[b]carbazole-3-carbonitrile]	much less potent
CCc1cc2c(cc1[C@H](O)CO)C(C)(C)c1[nH]c3cc(C#N)ccc3c1C2=O [Compound 23, (S)-8-(1,2-dihydroxyethyl)-9-ethyl-6,6-dimethyl-11-oxo-6,11-dihydro-5H-benzo[b]carbazole-3-carbonitrile]	much less potent
CCc1cc2c(cc1C(=O)O)C(C)(C)c1[nH]c3cc(C#N)ccc3c1C2=O [Compound 24, 3-cyano-9-ethyl-6,6-dimethyl-11-oxo-6,11-dihydro-5H-benzo[b]carbazole-8-carboxylic acid]	much less potent
CCc1cc2c(cc1/C=C/CN1CCOCC1)C(C)(C)c1[nH]c3cc(C#N)ccc3c1C2=O [Compound 25, (E)-9-ethyl-6,6-dimethyl-8-(3-morpholinoprop-1-en-1-yl)-11-oxo-6,11-dihydro-5H-benzo[b]carbazole-3-carbonitrile]	no activity
CCc1cc2c(cc1-c1cnn(C(C)(C)C(=O)N(C)C)c1)C(C)(C)c1[nH]c3cc(C#N)ccc3c1C2=O [Compound 35, 2-(4-(3-cyano-9-ethyl-6,6-dimethyl-11-oxo-6,11-dihydro-5H-benzo[b]carbazol-8-yl)-1H-pyrazol-1-yl)-N,N,2-trime-thylpropanamide]	quite potent
CCc1cc2c(cc1-c1cnn(C(=O)N(C)C)c1)C(C)(C)c1[nH]c3cc(C#N)ccc3c1C2=O [Compound 36, 4-(3-cyano-9-ethyl-6,6-dimethyl-11-oxo-6,11-dihydro-5H-benzo[b]carbazol-8-yl)-N,N-dimethyl-1H-pyrazole-1-carboxamide]	quite potent

Further lines, results first:

single point inhibition of the G1202R mutant	Compound
quite potent	CCc1cc2c(cc1-c1cnn(C)c1)C(C)(C)c1[nH]c3cc(C#N)ccc3c1C2=O [Compound 7, 9-ethyl-6,6-dimethyl-8-(1-methyl-1H-pyrazol-4-yl)-11-oxo-6,11-dihydro-5H-benzo[b]carbazole-3-carbonitrile]
quite potent	CCc1cc2c(cc1-c1cn[nH]c1)C(C)(C)c1[nH]c3cc(C#N)ccc3c1C2=O [Compound 8, 9-ethyl-6,6-dimethyl-11-oxo-8-(1H-pyrazol-4-yl)-6,11-dihydro-5H-benzo[b]carbazole-3-carbonitrile]
quite potent	CCc1cc2c(cc1-c1cc[nH]n1)C(C)(C)c1[nH]c3cc(C#N)ccc3c1C2=O [Compound 9, 9-ethyl-6,6-dimethyl-11-oxo-8-(1H-pyrazol-3-yl)-6,11-dihydro-5H-benzo[b]carbazole-3-carbonitrile]
much less inhibitory activity	CCc1cc2c(cc1-c1ccoc1)C(C)(C)c1[nH]c3cc(C#N)ccc3c1C2=O [Compound 11, 9-ethyl-8-(furan-3-yl)-6,6-dimethyl-11-oxo-6,11-dihydro-5H-benzo[b]carbazole-3-carbonitrile]
much less inhibitory activity	CCc1cc2c(cc1-c1cccs1)C(C)(C)c1[nH]c3cc(C#N)ccc3c1C2=O [Compound 12, 9-ethyl-6,6-dimethyl-11-oxo-8-(thiophen-2-yl)-6,11-dihydro-5H-benzo[b]carbazole-3-carbonitrile]
